Paper PMC5055185, “Dual pharmacological inhibition of glutathione and thioredoxin systems synergizes to kill colorectal carcinoma stem cells” (Cancer Medicine, 2016)
pIC50: −log10 of the molar value. Where “and” joins values, the source holds several entries; their conditions need not be identical. Equal values may be shown once.

Legend:
Format in all cases: cell-based, human
[1] = system: NRF2 target genes in colorectal CTOSs; test: qRT-PCR of NRF2 and TP53 target genes in colorectal CTOSs
Protocol: Total RNA was purified using RNAiso Plus (Takara, Osaka, Japan). Reverse transcription was performed using PrimeScript™ with gDNA Eraser (Takara). For quantifying the copy number of each mRNA, we used a StepOne™ Real‐Time PCR System (Applied Biosystems, Waltham, MA) and the Taqman® method. Data were calculated according to the modified delta‐cycle of threshold (ΔCT) method. Normalized Log2 expression was defined as follows: (Log2 expression of a gene of interest) = 30 (arbitrary constant) + (CT of 18S rRNA) − (CT of a gene of interest). We used Log2 parameter for statistical analysis because mRNA expression follows a log‐normal distribution, whereas ΔCT follows normal distribution. A gene‐specific fluorescent probe was designed using a web‐based program (https://qpcr.probefinder.com/organism.jsp). […] Gene‐specific Taqman® probes were purchased from Life Technologies, (Waltham, MA, for Cat#, see Table S1 SpreadSheet2). For PCR, Thunderbird® Probe qPCR mix (Toyobo, Osaka, Japan) was used and the PCR conditions consisted of 40 cycles of two steps (95°C for 15 sec and 60°C for 50 sec).
In order to judge the effect of drug treatments on gene expression, a repeated measures one‐way analysis of variance (ANOVA) was used to determine the variance of Log2 expression from four different groups (untreated, auranofin, CB83, and piperlongumine) using SPSS. Subsequently, the effect of each drug was determined by a paired t test as a post hoc analysis. The P‐values < 0.05 were defined as statistically significant.
In order to estimate NRF2 compensation induced by pharmacological inhibition of TXNRD (auranofin), G6PD (CB83), or GSTπ (piperlongumine), we quantified gene expression of NRF2 target genes. Activation of NRF2 protein was confirmed by NRF2 phosphorylation (Fig. S5A).

[2] = system: TIG‐3 embryonic fibroblasts (fetal lung); test: cell survival (trypan blue exclusion, 5 days), TIG-3; conditions: for pIC50: TIG3, cellular survival, 5 days; for Ratio of survived cells (Drugs treated/Untreated), Average / Ratio of survived cells (Drugs treated/Untreated), single passage points #: TIG-3
Protocol: (§1) Modified procedures of CTOS culture 16 were described elsewhere 10. […] The culture medium was serum‐free advanced DMEM/F‐12 (GIBCO, Waltham, MA) supplemented with FGF‐2 (10 ng/mL, ReproCell, Yokohama, Japan), penicillin ([…], Wako, Osaka, Japan), streptomycin (0.1 mg/mL,Wako), gentamicin (50 μg/mL, Wako), and fungizone (0.25 μg/mL, GIBCO). DLD‐1 and HCT116 CRC cell lines were purchased from JCRB Cell Bank (Osaka, Japan) and RIKEN BioResource Center (Ibaraki, Japan), respectively. In order to estimate pharmacological side effects against normal tissues, human diploid fibroblasts were purchased (JCRB Cell Bank) as model cells. The origins of the fibroblasts were as follows: OUMS‐36 (embryo), TIG‐3 (fetal lung), TIG‐111 (dermal fibroblasts [DFs] from individual), TIG‐119 (DFs from individual), and TIG‐102 (DFs from individual). Adult DFs were purchased from Kurabo (Osaka, Japan). CRC cell lines and fibroblasts were maintained under supplier‐recommended culture conditions. Since the culture conditions are different between fibroblasts and CTOSs, we need to be cautious about the interpretation of data (i.e., lateral comparison between them). […] Colorectal CTOSs display augmented survival through maintaining epithelial structure with E‐cadherin 16. On the other hand, the establishment of conventional cell lines (adherent culture) are much less efficient because constant cell division and autonomous survival are required for the procedure. When we choose CTOSs instead of cancer cell lines, we lose the equivalent condition (adherent culture) as a trade‐off.
(§2) Each drug's half‐maximal inhibitory concentration (IC50) was calculated based on live cell number ratios (drug treated/untreated × 100%) obtained from serial dilution of drug concentration. The length of drug exposure was 5 days. Each number of live cells was counted automatically by trypan blue exclusion (LUNA automated cell counter, Logos Biosystems, Anyang, South Korea). Cancer spheroids were dispersed with serial treatments (20 min each) of TrypLE™ and Accumax™. Thus, IC50 was determined based on cellular survival, but not on proliferation. We chose the survival index instead of the speed of growth because CTOSs in vitro show very slow proliferation (quiescence), which is one of the hallmarks of CSCs 2. The IC50 values of fibroblasts were accordingly determined based on cellular survival index during quiescence (by contact inhibition). […] To quantify the synergism of two distinct drugs, Combination Index (CI) was calculated 21. A CI value of about 1 (0.90–1.10) was defined as nearly additive and CI values more than (>1.10) and less than (<0.90) were defined as antagonism and synergism, respectively. IC50 and CI were determined using CompuSyn software (ComboSyn, Paramus, NK).

[3] = system: TIG‐102 dermal fibroblasts; test: cell survival (trypan blue exclusion, 5 days), TIG-102; conditions: for pIC50: TIG102, cellular survival, 5 days; for Ratio of survived cells (Drugs treated/Untreated), Average / Ratio of survived cells (Drugs treated/Untreated), single passage points #: TIG-102
Protocol: as §1, §2

[4] = higher dose (auranofin 4, CB83 25, piperlongumine 10 μmol/L) for 24 h
[5] = lower dose (auranofin 2, CB83 12.5, piperlongumine 5 μmol/L) for 48 h

## CC[PH](CC)(CC)[Au][S][C@@H]1O[C@H](COC(C)=O)[C@@H](OC(C)=O)[C@H](OC(C)=O)[C@H]1OC(C)=O [Aura, Auranofin]
[1]; [4]
  G6PD mRNA expression change: up‐regulated
  GCLM mRNA expression change: up‐regulated
  TXNRD1 mRNA expression change: up‐regulated
[1]; [5]
  G6PD mRNA expression change: up‐regulated
  GCLC mRNA expression change: up‐regulated
  GCLM mRNA expression change: up‐regulated
  ME1 mRNA expression change: up‐regulated
  TXN mRNA expression change: up‐regulated
  TXNRD1 mRNA expression change: up‐regulated
[2]
  pIC50: 5.71
[2]; Aura 1 microM
  Ratio of survived cells (Drugs treated/Untreated), Average: 83.1429%
[2]; Aura 2 microM
  Ratio of survived cells (Drugs treated/Untreated), Average: 61.4286%
[2]; Aura 4 microM
  Ratio of survived cells (Drugs treated/Untreated), Average: 9.571%
[3]
  pIC50: 5.96
[3]; Aura 1 microM
  Ratio of survived cells (Drugs treated/Untreated), Average: 48.5%
  Ratio of survived cells (Drugs treated/Untreated), single passage points #: 44% and 53%
[3]; Aura 2 microM
  Ratio of survived cells (Drugs treated/Untreated), Average: 21%
[3]; Aura 4 microM
  Ratio of survived cells (Drugs treated/Untreated), Average: 0%
  Ratio of survived cells (Drugs treated/Untreated), single passage points #: 0%

## COc1cc(/C=C/C(=O)N2CCC=CC2=O)cc(OC)c1OC [Pipe, Piperlongumine]
[1]; [4]
  G6PD mRNA expression change: up‐regulated
  GCLM mRNA expression change: up‐regulated
  TXNRD1 mRNA expression change: up‐regulated
[1]; [5]
  G6PD mRNA expression change: up‐regulated
  GCLM mRNA expression change: up‐regulated
  TXNRD1 mRNA expression change: up‐regulated
[2]
  pIC50: 4.97
[2]; Pipe 2.5 microM
  Ratio of survived cells (Drugs treated/Untreated), Average: 111.833%
  Ratio of survived cells (Drugs treated/Untreated), single passage points #: 107% and 154% and 95% and 81% and 127%
[2]; Pipe 5 microM
  Ratio of survived cells (Drugs treated/Untreated), Average: 79.5%
  Ratio of survived cells (Drugs treated/Untreated), single passage points #: 82% and 60% and 112% and 58% and 92% and 73%
[2]; Pipe 10 microM
  Ratio of survived cells (Drugs treated/Untreated), Average: 64%
[3]
  pIC50: 5.10
[3]; Pipe 2.5 microM
  Ratio of survived cells (Drugs treated/Untreated), Average: 105.667%
  Ratio of survived cells (Drugs treated/Untreated), single passage points #: 83% and 86% and 148%
[3]; Pipe 5 microM
  Ratio of survived cells (Drugs treated/Untreated), Average: 86.3333%
  Ratio of survived cells (Drugs treated/Untreated), single passage points #: 54% and 100% and 105%
[3]; Pipe 10 microM
  Ratio of survived cells (Drugs treated/Untreated), Average: 27.6667%
